Assay results as given in patent US6511966B2, “Mitochondria protecting agents for treating mitochondria associated diseases” (MitoKor, priority 1998, dated 2003).
Read-outs that look alike come from different tables or passages of the source.

Tests used:
[1] = tested on: SH-SY5Y human neuroblastoma cells; assay: DCFC assay for inhibition of ROS production, cell-based aspect; conditions: read-out: IC50 Cell-Based (Inhibition of ROS, DCFC assay)
Text: According to this assay, the ability of a mitochondria protecting agent of the invention to inhibit production of ROS intracellularly may be compared to its antioxidant activity in a cell-free environment. […] Non-fluorescent DCFC is converted upon oxidation to a fluorophore that can be quantified fluorimetrically. Cell membranes are also permeable to DCFC, but the charged acetate groups of DCFC are removed by intracellular esterase activity, rendering the indicator less able to diffuse back out of the cell. In the cell-based aspect of the DCFC assay for inhibition of production of ROS, cultured cells may be pre-loaded with a suitable amount of DCFC and then contacted with a mitochondria protecting agent. After an appropriate interval, free radical production in the cultured cells may be induced by contacting them with iron (III)/ascorbate and the relative mean DCFC fluorescence can be monitored as a function of time. In the cell-based aspect of the DCFC assay, monolayers of cultured adherent SH-SY5Y human neuroblastoma cells (Biedler et al., Cancer Res. 33:2643, 1973) at or near confluence were rinsed and harvested using trypsin according to standard methods. […] The excess DCFC-DA was removed by needle aspiration and each well was gently rinsed twice with HBSS. Each well then received 80 μl of HBSS and 10 μl of mitochondria protecting agent, or vehicle control, diluted into HBSS from stock solutions of dimethylformamide or dimethylsulfoxide. The final concentration of the organic solvent was maintained at or below 0.1% (v/v) in HBSS while in contact with cells. Cells were equilibrated for 15 minutes at room temperature with the mitochondria protecting agent (or vehicle control) and then 10 μl of fresh 500 μM ferric chloride/300 μM ascorbate solution was added to initiate free radical formation. Fluorescence of each microculture in the 96-well plate was quantified immediately using a Cytofluor fluorimetric plate reader (model #2350, Millipore Corp., Bedford, Mass.; excitation wavelength=485 nm, emission wavelength=[…]) and t0 fluorescence was recorded. The 96-well plates were incubated 30 minutes at 37° C./5% CO2 and fluorescence at 530 nm was again measured (t30). […] The cells were then harvested by trypsinization and counted using a hemacytometer in order to normalize the data as Δ(t30,−t0)RMF per cell. The efficacy of a candidate mitochondria protecting agent was determined by comparing its ability to inhibit ROS production relative to the vehicle control.

[2] = tested on: SH-SY5Y neuroblastoma cells; assay: Ionomycin induced apoptosis (membrane blebbing by light microscopy); assay type: cell-based, human
Description: SH-SY5Y neuroblastoma cells (1×10^5 cells) are rinsed with one volume 1×PBS, and then treated with 10 μM ionomycin (Calbiochem, San Diego, Calif.) in DMEM supplemented with 10% fetal calf serum (FCS) (Gibco, Life Technologies, Grand Island, N.Y.) for 10 minutes, followed by two washes with DMEM (10% FCS). After 6h incubation at 37° C. in DMEM (10% FCS), cells are visualized by light microscopy (20X magnification). […] When cells are simultaneously treated with ionomycin and 2 mM creatine, the proportion of cells undergoing apoptosis as evidenced by membrane blebbing is reduced to approximately 10%. Candidate mitochondria protecting agents are assayed to determine whether they provides the same magnitude of protection from induction of apoptosis as does creatine in this ionomycin induced apoptosis assay.

[3] = Homo sapiens, 0.5 h, SH-SY5Y cells pre-loaded with DCFC-DA, ferric chloride/ascorbate induced free radical formation, fluorescence change over 30 minutes

Row | SMILES | IC50 [1, 3] | other results
1 | CCCc1ccc(O)c(O)c1 [(I-6), 2-hydroxy4-propylphenol] | 200 nM | –
2 | CC(C)(c1ccc(O)cc1)c1ccc(O)cc1 [(II-5), 4,4′-Isopropylidenediphenol] | 1000 nM | –
3 | CC(C)(c1ccc(O)cc1)c1ccc(O)c(NC(=N)N)c1 [(II-10)] | – | IC50 ([1]; Homo sapiens, SH-SY5Y, 0.5 h): 1000 nM
4 | CCCc1cc(O)ccc1O [(I-10)] | 120 nM | –
5 | CCOc1ccc2c(c1)C(C)=CC(C)(C)N2 [(III-4), 6-ethoxy-1,2-dihydro-2,2,4-trimethylguinoline] | – | IC50 ([1]; SH-SY5Y cells pre-loaded with DCFC-DA, ferric chloride/ascorbate induced free radical formation, fluorescence change over 30 minutes): 20 nM
6 | C[C@H](CCC(=O)O)C[C@H](C)C[C@H](C)C(=O)/C=C(\O)[C@H](C)C[C@H](C)C/C=C/[C@@H](C)[C@@H](O)[C@@H](C)[C@@H](O)C[C@@H]1CC[C@@](C)([C@H]2CC[C@@](C)([C@@H](C)O)O2)O1 [ionomycin] | – | ionomycin treated cells exhibiting membrane blebbing (final stage of apoptosis) ([2]; 10 μM ionomycin for 10 minutes, then 6h incubation at 37° C., untreated cells <5%): Approximately 80%
7 | CN(CC(=O)O)C(=N)N [creatine] | – | proportion of cells undergoing apoptosis as evidenced by membrane blebbing ([2]; cells simultaneously treated with 10 μM ionomycin and 2 mM creatine, 6h incubation at 37° C.): approximately 10%
8 | CCCc1ccc(OC(C)=O)c(OC(C)=O)c1 [(I-8)] | 400 nM | –
9 | Cc1c(C)c2c(c(C)c1O)CCC(C)(CNNC(=N)N)O2 (stereo not drawn) [(IV-9)] | 1000 nM | –
10 | OCCCc1ccc(O)c(O)c1 [(I-5)] | 100 nM | –

The next lines start with results.

Row | IC50 [1, 3] | SMILES | other results
11 | 35 nM | CC(C)(c1ccc(O)c(N)c1)c1ccc(O)c(N)c1 [(II-2)] | –
12 | 70 nM | CC1=CC(C)(C)Nc2ccc(O)cc21 [(III-3), 2,2,4-trimethyl-1,2-dihydro-quinolin-6-ol] | –
13 | 25 nM | CCCCCCCCc1ccc(O)c(N)c1 [(I-2), 2-amino4octyl phenol] | –
14 | 65 nM | CC(C)(C)CC(C)(C)c1ccc(O)c(N)c1 [(I-3)] | –
15 | 10 nM | CN(C)c1cc(C(C)(C)c2ccc(O)c(N(C)C)c2)ccc1O [(II-6)] | –
